Reference: PubChem BioAssay (NCI)
Values joined by “and” are separate entries in the source; they are usually repeats but may differ in a detail not shown here. Equal entries are not always repeated.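 Interpolation was linear, between the two tested concentrations surrounding the appropriate level; five concentrations were tested over 48 hours in 96-well plates. Here, GI50 denotes the concentration required for 50% inhibition of growth. At the TGI there is no net growth.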

How the values were obtained:
Assay in all cases: inhibition of tumour cell growth, NCI panel, 48 h
HCC-2998 colon = system: HCC-2998 colon
DU-145 prostate = system: DU-145 prostate
CCRF-CEM leukemia = system: CCRF-CEM leukemia
SF-268 CNS = system: SF-268 CNS
MOLT-4 leukemia = system: MOLT-4 leukemia
A549 NSCLC = system: A549 NSCLC
NCI-H23 lung = system: NCI-H23 lung
NCI-H522 lung = system: NCI-H522 lung
RXF 393 renal = system: RXF 393 renal
OVCAR-5 ovarian = system: OVCAR-5 ovarian

SMILES | GI50 (HCC-2998 colon) | TGI (HCC-2998 colon) | GI50 (DU-145 prostate) | TGI (DU-145 prostate) | GI50 (CCRF-CEM leukemia) | TGI (CCRF-CEM leukemia) | GI50 (SF-268 CNS) | TGI (SF-268 CNS) | GI50 (MOLT-4 leukemia) | TGI (MOLT-4 leukemia) | GI50 (A549 NSCLC) | TGI (A549 NSCLC) | GI50 (NCI-H23 lung) | TGI (NCI-H23 lung) | GI50 (NCI-H522 lung) | TGI (NCI-H522 lung) | GI50 (RXF 393 renal) | TGI (RXF 393 renal) | GI50 (OVCAR-5 ovarian) | TGI (OVCAR-5 ovarian)
COc1ccc(Nc2ccnc(N3CCN(c4ccnc5cc(Cl)ccc45)CC3)n2)cc1 | 2730 nM | > 55.4 µM | 2590 nM | > 30.5 µM | 1740 nM | > 34.2 µM | 2310 nM | > 100 µM | 1560 nM | 4.37 µM | 1.47 µM | > 100 µM | 1650 nM | 9.4 µM | 321 nM | 1750 nM | 1310 nM | 6.6 µM | 2.15 µM | > 100 µM
COc1ccc(/C=C(/C)[N+](=O)[O-])cc1OC | 1800 nM and 1770 nM | 3.27 µM and 3.32 µM | 2420 nM and 2450 nM | 5.72 µM and 5.67 µM | 1960 nM and 786 nM | 5.31 µM and 5.72 µM | 2820 nM and 3610 nM | 7.13 µM and 13.2 µM | 2940 nM and 3320 nM |  | 6.05 µM and 4.13 µM | 19.7 µM and 17.7 µM | 1900 nM and 1980 nM | 4.24 µM and 4.6 µM | 456 nM and 480 nM | 1140 nM and 2260 nM | 1700 nM and 1420 nM | 3.16 µM and 2.78 µM | 4.12 µM and 5 µM | 12.4 µM and 16.1 µM
COc1ccc2c(-c3ccnc(Nc4cccc(OC(F)(F)F)c4)n3)cnn2n1 | 2140 nM | 8.82 µM | 1350 nM | 17.6 µM | 1090 nM | > 25 µM | 1530 nM | 6.53 µM | 2230 nM | > 25 µM | 1.82 µM | 5.42 µM | 1200 nM | 7.41 µM | 366 nM | 1770 nM | 1740 nM | 6.66 µM | 3.53 µM | > 21.1 µM
Cc1ccncc1C(N)=O | > 100000 nM | > 100 µM | > 100000 nM | > 100 µM | > 100000 nM | > 100 µM | > 100000 nM | > 100 µM | > 100000 nM | > 100 µM | > 100 µM | > 100 µM | > 100000 nM | > 100 µM | > 100000 nM | > 100000 nM | > 100000 nM | > 100 µM | > 100 µM | > 100 µM
COc1cccc(Oc2ccccc2NC(=O)CNC(=O)c2cccc3ccccc23)c1 | 1250 nM | > 25 µM | 703 nM | > 25 µM | 360 nM | > 25 µM | 547 nM | > 25 µM | 654 nM | > 25 µM | 0.315 µM | > 25 µM | 735 nM | > 25 µM | 176 nM | 2020 nM | 165 nM | 2.19 µM | 1.13 µM | > 25 µM
CCOC(=O)c1cc2c(cc1Cl)SC(=Nc1ccccc1)N(S(=O)(=O)c1ccc(Br)s1)S2(=O)=O | 16700 nM | 31.6 µM | 19000 nM | 37 µM | 4510 nM | 18.8 µM | 19200 nM | 46.5 µM | 4370 nM | 17.9 µM | 21.4 µM | 53.8 µM | 18300 nM | 42.2 µM | 26400 nM | 74900 nM | 2100 nM | 11.5 µM | 22 µM | 50.8 µM
CCc1c(C)nc2sc3c(N)ncnc3c2c1C | > 25000 nM | > 25 µM | > 25000 nM | > 25 µM | > 25000 nM | > 25 µM | > 25000 nM | > 25 µM | > 25000 nM | > 25 µM | > 25 µM | > 25 µM | > 25000 nM | > 25 µM | > 25000 nM | > 25000 nM | > 25000 nM | > 25 µM | > 25 µM | > 25 µM
CSc1ccc(C2=NN(C(C)=O)C(c3ccc(-c4ccc(Cl)cc4)o3)C2)cc1 (stereo not drawn) | 47100 nM | > 100 µM | 81000 nM | > 100 µM | 44200 nM | > 100 µM | 21700 nM | 71.4 µM | 16400 nM | 97.3 µM | 35.2 µM | > 100 µM | 86100 nM | > 100 µM | 18700 nM | 60300 nM | 44600 nM | > 100 µM | > 100 µM | > 100 µM
Nc1n[nH]c2ccc([C@@H]3Nc4cc5c(cc4[C@H]4C6CCC(C6)[C@@H]34)C(=O)NC5)cc12 (stereo partly drawn) | 362 nM | > 41.5 µM | 416 nM | > 40.7 µM | 323 nM | > 100 µM | 1040 nM | > 100 µM | 415 nM | > 100 µM | 1.56 µM | > 100 µM | 431 nM | > 100 µM | 305 nM | > 100000 nM | 273 nM |  | 1.06 µM | > 100 µM
